We go through four molecules from paper PMC9606943, “Synthesis and Chemopreventive Potential of 5-FU/Genistein Hybrids on Colorectal Cancer Cells” (Pharmaceuticals, 2022).

The test system of assay [1] is SW620 cells. The experiment in a line: Cell cycle distribution (PI, flow cytometry), SW620. Type of assay: cell-based, human. The following applies: 48 h, IC50 concentration, versus DMSO control. The procedure:
(§1) Cell cycle analysis was evaluated by flow cytometry using propidium iodide (PI). This experiment was carried out as previously described by Nicoletti et al. (1991). Then, 48 h after treatment with the IC50 value of the hybrids 4a, 4g and DMSO (1%) as a vehicle control, cells were collected by scraping and centrifugation, resuspending the cell pellet in a versene buffer. Thereafter, cells were fixed with 1.8 mL cold ethanol (70%) at 4 °C overnight. Alcohol was removed by subsequent washing twice with versene buffer. The final pellet was resuspended in 300 µL of PBS with 0.25 mg/mL RNAse (Type I-A, Sigma-Aldrich, Germany) and 0.1 mg/mL PI and incubated for 30 min in the dark at room temperature. FACS Canto II flow cytometer (BD Biosciences, USA) was used to read the PI fluorescence of 10,000 events. The analysis of data was performed with the software FlowJo 7.6.2 (Ashland, OR, USA).
For orientation: Flow cytometry measures light scatter and fluorescence of single cells or particles in a stream.

The test system of assay [2] is SW480. The experiment in a line: Antiproliferative activity (sulforhodamine B), SW480. The following applies: dose- and time-dependent, from day 2 above 12.5 µM, from day 4 at 6.25 µM. Type of assay: cell-based, human. The procedure:
(§2) Briefly, cells were seeded at 20,000 cells/well (for cytotoxicity assay) and 2500 cells/well (for the antiproliferative test) in 96-well tissue culture plates, incubating at 37 °C in a humidified atmosphere with 5% CO2. After the adaptation time (24 h), cells were treated with increasing concentrations of the hybrid molecules or DMSO (1%). At the end of each treatment, cells were fixed with trichloroacetic acid (50% v/v; MERCK) for one hour at 4 °C. Subsequently, cell proteins were stained with SRB (0.4% w/v; Sigma-Aldrich, United States) and washed with acetic acid (1%). After drying at room temperature, Tris-base (10 mM) was added to solubilize protein bound stain. Absorbance was read in a microplate reader (Mindray MR-96A) at 492 nm. All experiments were performed at least in duplicate.

Assay [3] has as its system SW620 cells. Kind of assay: Mitochondrial membrane potential and plasma membrane integrity (DiOC6/PI), SW620. Type of assay: cell-based, human. As to conditions: 48 h, IC50 concentration. The method, then: (§3) The fluorescent dyes DiOC6 (3,3′-dihexyloxacarbocyanine iodide, Thermo Fisher Scientific, Waltham, MA, USA) and propidium iodide (PI) were used to evaluate possible changes in mitochondrial membrane potential induced by the hybrid molecules. Then, 2.5 × 10^5 cells/well were seeded in 6-well tissue culture plates and allowed to grow for 24 h. Then, these were treated with hybrids 4a and 4g (with the IC50 value for each compound). Cells were harvested by scrapping 48 h after treatment, stained with DiOC6 and propidium iodide (PI) at room temperature for 30 min in darkness. Flow cytometric analysis of 10,000 events was carried out to quantify cells with mitochondrial depolarization, excitation at 488 nm and detection of the emission with the green (530/15 nm) and the red (610/20 nm) filters.

Assay [4] has as its system SW480 cells. The experiment in a line: Cell death induction (Annexin V/FITC and PI), SW480. The following applies: 48 h. In kind it is cell-based, human. An excerpt: All assays were repeated twice.
The subject of a further assay is caspase 8. The experiment in a line: Apoptotic biomarker ELISA, caspase 8 in SW620 cells. In kind it is cell-based, human. As to conditions: 48 h, IC50 concentration, versus DMSO control. An excerpt:
(§4) Afterwards, cells were scraped and lysed with Cell Lysis Buffer (1X, Ref. #9803). The supernatant was used for the determination of apoptotic biomarkers after the treatment with the hybrid molecules. Enzyme-linked immunosorbent assay (ELISA) kits were provided by Elabscience Biotechnology Co., (Wuhan, Hubei, China) (caspase-8) and Cell-Signaling Technology (Danvers, MA, USA) (caspase-3 and p53), following the manufacturer’s instructions.
(In an ELISA, binding on a coated surface is turned into a signal by an enzyme label.)

In assay [5] the test system is SW620. Kind of assay: Antiproliferative activity (sulforhodamine B), SW620. Type of assay: cell-based, human. As to conditions: dose- and time-dependent, from day 2 above 12.5 µM, from day 4 at 6.25 µM. The method, then: as §2
The test system of assay [6] is SW480 cells. Kind of assay: Mitochondrial membrane potential and plasma membrane integrity (DiOC6/PI), SW480. In kind it is cell-based, human. The following applies: 48 h, IC50 concentration. The method, then: as §3
The subject of a further assay is CHO-K1. Kind of assay: Sulforhodamine B cytotoxicity assay, CHO-K1. Type of assay: cell-based, chinese hamster. As to conditions: Cricetulus griseus, CHO-K1; 48 h; mean ± SE; non-malignant cells. The procedure: (§5) Two colon cancer cells (SW480 and SW620) and non-malignant cell lines (human keratinocytes, HaCaT; chinese hamster ovary, CHO-K1) were obtained from The European Collection of Authenticated Cell Cultures (ECACC, England). For biological evaluations, cells were cultured in Dulbecco’s Modified Eagle Medium, supplemented with 10% heat-inactivated (56 °C) horse serum, 1% penicillin/streptomycin and 1% non-essential amino acids (Gibco Invitrogen, Carlsbad, CA, USA). During the treatments, the serum was reduced to 3%, and the medium was supplemented with insulin ([…]) transferrin ([…]) and selenium (5 ng/mL) (ITS-defined medium; Gibco, Invitrogen, Carlsbad, USA). To avoid Mycoplasma spp. contamination, cell cultures were regularly tested by polymerase chain reaction.
as §2

The test system of assay [7] is SW480 cells. Kind of assay: Cell cycle distribution (PI, flow cytometry), SW480. In kind it is cell-based, human. As to conditions: 48 h, IC50 concentration. The method, then:
as §1

The subject of assay [8] is SW620 cells. Kind of assay: Cell death induction (Annexin V/FITC and PI), SW620. As to conditions: 48 h.
Protocol: SW480 and SW620 cells were treated for 48 h and further collected by scraping. After centrifugation, the cell pellet was resuspended in Annexin V/FITC–PI and incubated in darkness for 20 min. Data were obtained through flow cytometry and analyzed with FlowJo 7.6.2 (Ashland, OR, USA). […] Cells with positive staining for PI were considered dead cells, late apoptotic cells, necroptotic cells or secondary necrotic cells. All assays were repeated twice [56].
Another assay relates to caspase-3. The experiment in a line: Apoptotic biomarker ELISA, caspase-3 in SW620 cells. Type of assay: cell-based, human. The following applies: 48 h, IC50 concentration, versus DMSO control.
Excerpt: as §4

Another assay concerns HaCaT. Kind of assay: Sulforhodamine B cytotoxicity assay, HaCaT. In kind it is cell-based, human. As to conditions: Homo sapiens, HaCaT; 48 h; mean ± SE; non-malignant cells. The procedure:
as §5, §2
Background: In SRB staining, fixed cells bind dye roughly in proportion to their protein.

Assay [9] relates to SW480. The experiment in a line: Sulforhodamine B cytotoxicity assay, SW480. The following applies: 48 h. Type of assay: cell-based, human. The procedure: as §5, §2
Assay [10] concerns SW620. The experiment in a line: Sulforhodamine B cytotoxicity assay, SW620. Type of assay: cell-based, human. The following applies: 48 h. The method, then: as §5, §2
Assay [11] has as its system tumor suppressor protein p53. The experiment in a line: Apoptotic biomarker ELISA, p53 in SW620 cells. Type of assay: cell-based, human. The following applies: 48 h, IC50 concentration, versus DMSO control.
Excerpt: as §4

Another assay relates to LU-1. The following applies: cited from earlier work.
The subject of another assay is Hep-G2. As to conditions: cited from earlier work.
The next assay has as its system RD. The following applies: cited from earlier work.
In the next assay the test system is normal VERO cells. The following applies: cited from earlier work.
A further assay concerns FL. The following applies: cited from earlier work.
The next assay relates to T47D. Also on record: method as in PMID 21389782. The following applies: ER-positive breast cancer cell line; cited from earlier work.
The test system of a further assay is 21PT. Also on record: method as in PMID 21389782. As to conditions: ER-positive breast cancer cell line; cited from earlier work.
The next assay concerns MCF-7. Also on record: method as in PMID 21389782. As to conditions: ER-positive breast cancer cell line; cited from earlier work.
Assay [12] has as its system SW480 cells. Also on record: method as in earlier work. The following applies: 48 h post-treatment with 300 µM; cited from earlier work.

On to `O=c1[nH]c(=O)n(Cc2cn(CCOc3cc(O)c4c(=O)c(-c5ccc(O)cc5)coc4c3)nn2)cc1F` [4a, 5-fluoro-1-((1-(3-((5-hydroxy-3-(4-hydroxyphenyl)-4-oxo-4H-chromen-7-yl)oxy)ethyl)-1H-1,2,3-triazol-4-yl)methyl)pyrimidine-2,4(1H,3H)-dione], for which the “Effect on cell cycle distribution” value in the assay on SW620 cells [1] is “important decrease in the population of cells in S-phase with a slight increase in G0/G1”; in the assay on SW480 cells [7] (versus DMSO control), “important decrease in the population of G0/G1 after treatment with hybrid 4a, with a consequent increase in S-phase and G2/M”. The “Antiproliferative activity (cell viability)” value in the assay on SW480 [2] and in the assay with SW620 [5] was “significant decrease in the percentages of cell viability” throughout. Further, the “Change in mitochondrial membrane potential” value with SW620 cells [3] and with SW480 cells [6] was “do not induce significant changes in mitochondrial membrane potential” in each case. Also, the “Plasma membrane integrity / cell death” value in the assay with SW480 cells [4] and in the assay on SW620 cells [8] was “caused a loss in membrane integrity” in each case. In addition, in the assay with caspase 8, the “Protein levels of caspase 8” value is listed as “significant increase in the levels of caspase 8”. Besides, the 50% inhibitory concentration (IC50) in the assay on CHO-K1 was 71.1 ± 10.5 µM; in the assay with HaCaT, 64.6 ± 1.07 µM; in the assay with SW480 [9] (Homo sapiens, SW480, mean ± SE), 62.7 ± 7.26 µM; with SW620 [10] (Homo sapiens, SW-620, mean ± SE), 50.6 ± 1.33 µM. Also, the “Cell cycle distribution G0/G1” value in the assay on SW480 cells [7] (representative histogram) worked out at 46.4%. In the assay on SW480 cells [7] (representative histogram), the “Cell cycle distribution G2/M” value was determined as 15.4%. Moreover, the “Cell cycle distribution S-phase” value with SW480 cells [7] (representative histogram) is 36.4%. Further, the “Cell cycle distribution Sub G0/G1” value with SW480 cells [7] (representative histogram) came to 1.8%. In the assay on caspase-3, the “Protein levels of caspase-3” value is recorded as “significant increase in the active form of caspase-3”. Moreover, the “Selectivity Index (SI) CHO-K1/SW480” value with SW480 [9] is 1.13. In addition, the “Selectivity Index (SI) HaCaT/SW480” value in the assay on SW480 [9] is 1.03. Also, in the assay on SW620 [10], the “Selectivity Index (SI) CHO-K1/620” value is given as 1.41. In addition, the “Selectivity Index (SI) HaCaT/SW620” value in the assay with SW620 [10] is recorded as 1.28. Also, in assay [11], the “Protein levels of tumor suppressor protein Tp53” value is listed as “important changes in the levels of the tumor suppressor protein Tp53”.
Regarding `CC(C)c1ccc(/C=C/C(=O)c2cc(Cn3cc(F)c(=O)[nH]c3=O)ccc2O)cc1` [B], the IC50 was 11.9 µM in the assay on LU-1; 4.68 µM with Hep-G2; 10.8 µM in the assay on RD; 15 µM with normal VERO cells; 8.17 µM with FL.
For `O=c1c(-c2ccc(OCCn3cc(-c4ccccc4)nn3)cc2)coc2cc(OCCn3cc(-c4ccccc4)nn3)cc(O)c12` [E], the concentration for half-maximal inhibition (IC50) in the assay on T47D is 0.9 µM; with 21PT, 0.9 µM; in the assay with MCF-7 it was 0.8 µM.
Take `CC(=O)Oc1ccccc1C(=O)OCCn1cc(COc2cc(O)c3c(=O)c(-c4ccc(O)cc4)coc3c2)nn1` [F]: the “reduction in cell viability” value in the assay with SW480 cells [12] is 40.49%.

In general, IC50 refers to the point on the concentration scale where inhibition reaches its midpoint.
